# Data from the supplement of paper PMC10307832.
# Key:
# Assay in all cases: relative viability (nuclei count vs DMSO), 5 days (fraction); higher = more cells survive
# [1] = compound: Cc1ccc2nc(NCCN)c3ncc(C)n3c2c1 + Nc1ncn([C@H]2C[C@H](O)[C@@H](CO)O2)c(=O)n1 [Decitabine] (partner 2 µM)
# Method in brief: (§1)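 Relative viability was taken as the ratio of nuclei in treated wells to nuclei in vehicle wells. Lung cancer cell lines in 1536-well plates received compounds by pin tool one day after seeding, either one drug alone or a fixed anchor-drug dose plus five library-drug doses (not always all listed) in √10 steps. Nuclei were counted on 4× images after 5 days of treatment, and values are medians of duplicate plates.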
# Salubrinal + Tozasertib = compound: O=C(/C=C/c1ccccc1)NC(NC(=S)Nc1cccc2cccnc12)C(Cl)(Cl)Cl [Salubrinal] + Cc1cc(Nc2cc(N3CCN(C)CC3)nc(Sc3ccc(NC(=O)C4CC4)cc3)n2)n[nH]1 [Tozasertib] (partner 0.1 µM)
# Method in brief: as §1
# Salubrinal + Vorinostat = compound: O=C(/C=C/c1ccccc1)NC(NC(=S)Nc1cccc2cccnc12)C(Cl)(Cl)Cl [Salubrinal] + O=C(CCCCCCC(=O)Nc1ccccc1)NO [Vorinostat] (partner 1 µM)
# Method in brief: as §1
# [2] = compound: Cc1ccc2nc(NCCN)c3ncc(C)n3c2c1 + C[C@@H](Oc1cc(-c2cnn(C3CCNCC3)c2)cnc1N)c1c(Cl)ccc(F)c1Cl [Crizotinib] (partner 1 µM)
# Method in brief: as §1
Cell Line,relative viability ([1]; first compound 0.04 µM),relative viability ([1]; first compound 0.1265 µM),relative viability ([1]; first compound 0.4 µM),relative viability ([1]; first compound 1.265 µM),relative viability ([1]; first compound 4 µM),relative viability (Salubrinal + Tozasertib; first compound 0.08 µM),relative viability (Salubrinal + Tozasertib; first compound 0.253 µM),relative viability (Salubrinal + Tozasertib; first compound 0.8 µM),relative viability (Salubrinal + Tozasertib; first compound 2.53 µM),relative viability (Salubrinal + Tozasertib; first compound 8 µM),relative viability (Salubrinal + Vorinostat; first compound 0.08 µM),relative viability (Salubrinal + Vorinostat; first compound 0.253 µM),relative viability (Salubrinal + Vorinostat; first compound 0.8 µM),relative viability (Salubrinal + Vorinostat; first compound 2.53 µM),relative viability (Salubrinal + Vorinostat; first compound 8 µM),relative viability ([2]; first compound 0.04 µM),relative viability ([2]; first compound 0.1265 µM),relative viability ([2]; first compound 0.4 µM),relative viability ([2]; first compound 1.265 µM),relative viability ([2]; first compound 4 µM)
NCI-H1395,0.616,0.708,0.713,0.669,0.607,0.822,0.849,0.72,0.714,0.805,0.617,0.768,1.09,0.901,0.558,–,–,–,–,–
LU99A,1,0.922,0.91,0.812,0.833,0.253,0.267,0.265,0.275,0.27,0.621,0.481,0.578,0.546,0.513,0.636,0.549,0.49,0.565,0.635
NCI-H1355,0.398,0.364,0.345,0.356,0.367,0.697,0.519,0.524,0.498,0.477,0.684,0.636,0.715,0.657,0.645,1.1,1.15,1.04,1.01,0.983
HCC-78,0.745,0.711,0.735,0.664,0.617,0.372,0.343,0.345,0.351,0.314,0.473,0.446,0.472,0.451,0.441,0.37,0.327,0.328,0.332,0.334
NCI-H1563,–,–,–,–,–,–,–,–,–,–,–,–,–,–,–,0.865,0.835,0.906,0.918,0.88
HCC-15,0.624,0.693,0.474,0.598,0.522,0.481,0.332,0.41,0.438,0.257,0.952,0.784,0.866,0.826,0.804,0.791,0.8,0.779,0.742,0.693
EKVX,0.335,0.35,0.345,0.32,0.28,0.437,0.387,0.536,0.382,0.321,0.769,0.606,0.863,0.668,0.665,0.921,0.794,1.02,1.05,0.903
NCI-H2087,0.308,0.362,0.249,0.285,0.299,0.299,0.212,0.295,0.229,0.195,0.981,0.368,0.67,0.676,0.762,1.1,0.926,0.782,0.932,0.727
LK-2,0.289,0.393,0.337,0.311,0.297,0.158,0.197,0.178,0.198,0.176,0.257,0.279,0.356,0.395,0.325,0.228,0.258,0.214,0.222,0.238
